This is an account of results in patent publication US20220315594A1, “METHOD OF SYNTHESIS OF COMPOUND FOR DUAL INHIBITION OF JAK2 AND BET” (OHM ONCOLOGY, priority 2019, published 2022).

Molecules are shown by their SMILES.

Conditions in all cases: qualitative statement
The subject of test [1] is cMYC expression. As to the kind of experiment: cMYC expression down-regulation. The test is classed as cell-based.
Test [2] addresses BRD4 BD2 (Homo sapiens, UniProt O60885). As to the kind of experiment: In vitro biochemical assay, BRD4 BD2 inhibition.
For test [3], the system named is JAK2 signaling. As to the kind of experiment: JAK2 signaling down-regulation. It counts as cell-based.
The target of test [4] is BRD4 BD1 (Homo sapiens, UniProt O60885). The test can be described thus: In vitro biochemical assay, BRD4 BD1 inhibition.
The target of test [5] is JAK2 (Homo sapiens, UniProt O60674). The test can be described thus: In vitro biochemical assay, JAK2 inhibition.
For test [6], the system named is multiple liquid cancer cell lines. As to the kind of experiment: Anti-proliferative activity against liquid cancer cell lines. It counts as cell-based.

Sequence of JAK2 (O60674 whole entry): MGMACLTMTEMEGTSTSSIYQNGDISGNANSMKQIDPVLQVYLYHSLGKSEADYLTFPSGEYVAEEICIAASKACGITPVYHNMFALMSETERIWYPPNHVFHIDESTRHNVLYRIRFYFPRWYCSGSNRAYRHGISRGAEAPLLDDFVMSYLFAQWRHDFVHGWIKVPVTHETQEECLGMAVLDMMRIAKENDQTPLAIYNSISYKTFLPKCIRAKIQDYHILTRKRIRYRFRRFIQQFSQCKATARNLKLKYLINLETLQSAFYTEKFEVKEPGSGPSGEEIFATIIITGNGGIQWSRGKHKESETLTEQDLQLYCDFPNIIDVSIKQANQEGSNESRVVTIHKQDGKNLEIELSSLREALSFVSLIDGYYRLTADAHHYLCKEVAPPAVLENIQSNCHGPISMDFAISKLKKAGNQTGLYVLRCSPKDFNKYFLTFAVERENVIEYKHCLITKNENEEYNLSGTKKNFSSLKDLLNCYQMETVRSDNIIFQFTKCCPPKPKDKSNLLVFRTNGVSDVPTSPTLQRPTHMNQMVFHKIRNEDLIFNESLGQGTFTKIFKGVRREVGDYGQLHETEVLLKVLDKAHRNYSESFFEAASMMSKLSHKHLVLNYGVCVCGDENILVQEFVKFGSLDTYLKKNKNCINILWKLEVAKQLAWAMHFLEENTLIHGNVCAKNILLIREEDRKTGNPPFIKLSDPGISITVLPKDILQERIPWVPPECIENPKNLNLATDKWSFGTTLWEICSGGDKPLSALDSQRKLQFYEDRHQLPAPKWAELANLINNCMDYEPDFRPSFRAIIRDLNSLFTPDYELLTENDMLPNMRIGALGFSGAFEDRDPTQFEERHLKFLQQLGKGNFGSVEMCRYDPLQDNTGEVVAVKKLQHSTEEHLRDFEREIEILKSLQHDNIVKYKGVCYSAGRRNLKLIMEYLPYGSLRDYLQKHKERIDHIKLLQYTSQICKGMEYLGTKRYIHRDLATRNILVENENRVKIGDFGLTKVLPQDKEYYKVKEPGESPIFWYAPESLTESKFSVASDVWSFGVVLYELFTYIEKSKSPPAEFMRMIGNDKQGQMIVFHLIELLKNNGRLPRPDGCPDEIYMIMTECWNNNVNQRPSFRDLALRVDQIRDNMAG

`CN(C)C1CCN(c2ccc(Nc3ncc4ccn(-c5cccc(NS(=O)(=O)C(C)(C)C)c5)c4n3)cc2F)CC1` [OHM-581, N-(3-(2-((4-(4-(dimethylamino)piperidin-1-yl)-3-fluorophenyl)amino)-7H-pyrrolo[2,3-d]pyrimidin-7-yl)phenyl)-2-methylpropane-2-sulfonamide]: in test [1], the cMYC expression entry is recorded as “robustly down-regulates”. Also, the “inhibition of BRD4 BD2” value in test [2] is “inhibit”. Moreover, in test [3], the JAK2 signaling result was “robustly down-regulates”. The “inhibition of BRD4 BD1” value in test [4] is “inhibit”. Further, in test [5], the “inhibition of JAK2” value is “inhibit”. The anti-proliferative activity result in test [6] is “significant anti-proliferative activity”.
